From PMC12566971, “Polyprenylated Acylphloroglucinols from Hypericum rochelii and Hypericum olympicum—Cytotoxic Effects on Non-Tumorigenic Cell Lines and Antibacterial Potential” (Pharmaceuticals, 2025)
Converted amounts (≈) assume the structure as drawn. “And” between values parts separate entries of the source, which are not always exact repeats. Equal entries are not always repeated. Where two headings read alike, the source gives them in different places.

Columns and labels:
MRSA biofilm = conditions: assessed and published previously, ref [29], cited from earlier work
CCL-1 = assay: MTT assay for cytotoxicity; assay type: cell-based, murine
Method: (§1) The MTT assay was performed according to Annex C, ISO 10993-5 [56] as in [116]. The panel of non-tumorigenic cell lines consisted of one murine (CCL-1 fibroblasts, which are recommended as a standard for cytotoxicity evaluation in Annex C of ISO 10993-5 [56]) and four human cell lines—HaCaT (immortalized epidermal keratinocytes), HGF (gingival fibroblasts), HEK-293 (embryonic cells from kidney epithelium), and HEPG2 (hepatoblastoma). Although technically a cancer cell line, HEPG2 is non-tumorigenic and retains many hepatocyte-related features in its proteome and a high degree of morphological and functional differentiation, also being a stage one hepatoblastoma.
(§2) CCL-1 was purchased from ATCC and HaCaT and HGF were bought from CLS Cell Lines Service (GmbH, Eppelheim, Germany). HEK-293 and HEPG2 were obtained from DSMZ. The cell culture medium for HaCaT and HEPG2 was Dulbecco’s Modified Eagle Medium (DMEM) with 4.5 g/L glucose (DMEM-HA). For HGF it was DMEM/F-12 (DMEM-12-A, a 1:1 mixture of DMEM and Ham’s F-12 medium). The cell medium for CCL-1 and HEK-293 was Eagle’s Minimum Essential Medium (MEM) (MEM-A). Ten percent heat-inactivated fetal bovine serum (FBS) was added to all media but to the one for the CCL-1 cells, to which 10% heat-inactivated horse serum was added. All media were supplemented with 2 mM L-glutamine and Penicillin/Streptomycin (Pen/Strep, 100×). The cell culture media, sera, and additives were from Capricorn Scientific (Düsseldorf, Germany).
(§3) GraphPad Prism software version 9 (GraphPad Software Inc., San Diego, CA, USA) was used to calculate the IC50 values from the MTT assays as in [116], as well as the MTC values, and the ELISA standard curves. The MTC values are, according to ISO 10993-5, the maximum concentration at which at least 70% of the cells are viable (nonlin fit, range).

Streptococcus pyogenes = conditions: ref [4],[29]; cited from earlier work
HEPG2 = assay: MTT assay for cytotoxicity; assay type: cell-based, human; conditions: for IC50: Homo sapiens, HepG2
Method: as §1, §2, §3

HaCaT = assay: MTT assay for cytotoxicity; assay type: cell-based, human; conditions: for IC50: Homo sapiens, HaCaT
Method: as §1, §2, §3

[1] = tested on: human total cytochrome P450 (CYP450); assay: ELISA for total cytochrome P450 in HEPG2 cells; assay type: in vitro ADME; conditions: HEPG2, 24 h, concentrations inhibiting S. aureus
Method: The effect on CYP450 was tested using the ELISA method on the HEPG2 liver cell line. As mentioned, it has weak or absent expression of the CYP450 superfamily, e.g., CYP3A4, CYP1A2, etc., and that low basal activity makes it a good model for studies of CYP inducers. In addition, these cells have the advantage of immortalization due to their cancerous nature. The standard curves after the two ELISA tests (Figure S7) were prepared as a standard dose–response curve, also called a four-parameter logistic (4-PL) curve.
Human total cytochrome P450 was examined using the Human Cytochrome P450 ELISA Kit (MBS705506, MyBioSource, San Diego, CA, USA) according to the manufacturer’s instructions. HEPG2 cells were seeded at a concentration of 100,000 cells/mL in a 6-well plate, and the overnight culture was treated with selected Hypericum agents. After 24 h of exposure, the protocol was performed according to the kit instructions.
The test principle uses the sandwich quantitative enzyme immunoassay technique. A microplate was pre-coated with an antibody specific for cytochrome P450. Standards and samples were pipetted into the wells, and if cytochrome P450 molecules were present, they were bound by the immobilized antibody. […] The color development was stopped, and its intensity was measured on a microplate reader ELx800 (BioTek Instruments, Inc., Winooski, VT, USA).

CCL-1 cell line = assay: Live-cell imaging with Hoechst for apoptosis detection; assay type: cell-based; conditions: low MIC doses
Method: Cell suspension was seeded in the same manner as for MTT, but 50 µL per well in 96-well clear bottom plates. […] For the hypertonic buffer, the exposure time was 2 h, and the cells were plated at twice the concentration as for the MTT and cytopathic tests in order to comply with the kit protocol.
At least two wells were seeded as replicates, and at least two photographs were taken for all samples and treatments, stained with dyes or not.

S. aureus biofilm = assay: Biofilm assay; assay type: cell-based, Staphylococcus aureus
Method: The biofilm assay was performed according to the protocol of Stepanović [138], as already described.

[2] = tested on: Limosilactobacillus fermentum; assay: MIC evaluation on lactobacilli (broth microdilution); assay type: cell-based
Method: (§4) The MIC and MBC assessment on the pathogenic bacteria and the candidate probiotic lactic acid bacteria was carried out by the broth microdilution assay (BMD) and the agar plate assay, respectively, as described in [4]. The metabolic (dehydrogenase) activity of the lactic acid bacteria was assessed as described in [4]. Lactobacilli of different origins from the collection of Laboratory “Lactic Acid Bacteria and Probiotics”, the Stephan Angeloff Institute of Microbiology, Bulgarian Academy of Sciences (Sofia, Bulgaria), were selected (Table 13). The strains had been assessed previously, as candidate probiotics, according to the in vitro criteria recommended by the EFSA and the WHO guidelines. They were stored at −20 °C in MRS broth (Merck Group, Darmstadt, Germany) supplemented with 20% v/v sterile glycerol. Prior to the experiments, lactobacilli were subcultured twice in MRS broth (GM369, HiMedia, Mumbai, India) at 37 °C. An overnight exponential-phase culture (5% v/v inoculum) was used for the tests.

[3] = tested on: Lactiplantibacillus plantarum; assay: as above; assay type: cell-based
Method: as §4

[4] = at least 70% of cells viable, ISO 10993-5

CC(C)=CCCC1(C)C(CC=C(C)C)CC2C(=O)C1(C(=O)C(C)C)C(=O)C(CC=C(C)C)=C2O (centres unmarked) [Olympiforin B]
Median Biofilm Inhibitory Concentration (MBIC50), MRSA (MRSA biofilm): 0.05 (0.03 to 0.07) µg/mL | Minimum Biofilm Inhibitory Concentration (MBIC), MRSA (MRSA biofilm): 0.5 (1/2 × MIC) µg/mL and 1.07 µM | Minimum Biofilm Inhibitory Concentration (MBIC), MRSA (MRSA biofilm; listed as olympiforin B): 0.5 µg/mL | IC50 (MRSA biofilm; read-out: Median Biofilm Inhibitory Concentration (MBIC50), MRSA): 0.12 µM | IC50 (CCL-1; Mus musculus, MTT assay): 5.5 mg/L (≈ 11.7 µM) | Maximum tolerated concentration (MTC), CCL-1 (CCL-1; [4]): 4.79 µg/mL | MIC on bacteria, S. pyogenes (Streptococcus pyogenes): 4 mg/L (≈ 8.53 µM) | IC50 (HEPG2; MTT assay): 4.5 mg/L | IC50 (HEPG2; converted to µM): 9.6 µM | Maximum tolerated concentration (MTC), HEPG2 (HEPG2; [4]): 1.54 µg/mL | IC50 (HaCaT; MTT assay): 1.71 mg/L | IC50 (HaCaT; converted to µM): 3.65 µM | Maximum tolerated concentration (MTC), HaCaT (HaCaT; concentration at which at least 70% of cells are viable, ISO 10993-5): 0.52 µg/mL | Induction of total CYP450 [1]: hardly induce | Nuclear and DNA condensation (signs of apoptosis) (CCL-1 cell line): did not cause any nuclear and DNA condensation | IC50 (S. aureus biofilm; Staphylococcus aureus, read-out: Median Biofilm Inhibitory Concentration (MBIC50), S. aureus): 0.07 µg/mL and 150 nM | Minimum Biofilm Inhibitory Concentration (MBIC), S. aureus (S. aureus biofilm; no visible biofilm): 1 (MIC) µg/mL | MIC ([2]; strain Lf53, read-out: MIC, Lf53): 2 mg/L (≈ 4.27 µM) | MIC ([2]; strain Lf98, read-out: MIC, Lf98): 2 mg/L (≈ 4.27 µM) | MIC ([3]; strain Lpl 11, read-out: MIC, Lpl 11): 2 mg/L (≈ 4.27 µM) | MIC ([3]; strain Lpl 25, read-out: MIC, Lpl 25): 2 mg/L (≈ 4.27 µM) | MIC ([3]; strain Lpl.AC11S, read-out: MIC, Lpl.AC11S): 2 mg/L (≈ 4.27 µM) | MIC ([3]; strain Lpl.L6, read-out: MIC, Lpl.L6): 4 mg/L (≈ 8.53 µM)
